From ChEMBL document CHEMBL5303304, “EUbOPEN Chemogenomics Library - IncuCyte” (2023)
Where “and” joins values, the source holds several entries; their conditions need not be identical. Identical values can stand only once.

Legend:
Type in all cases: toxicity, cell-based
Fibroblast = test: Incucyte cell viability with human fibroblast; conditions: 10 µM, compound concentration 10 uM
U2OS = test: Incucyte cell viability with U2OS; conditions: human, 10 µM, compound concentration 10 uM
HEK-293T = test: Incucyte cell viability with HEK293T; conditions: human, 10 µM, compound concentration 10 uM
Further: unitless GR value; below 1 slowed growth and below 0 cell loss.

| Structure (SMILES) | Growth Rate (Fibroblast; 6 h, replicate number 1) | Growth Rate (Fibroblast; 6 h, replicate number 2) | Growth Rate (Fibroblast; 12 h, replicate number 1) | Growth Rate (Fibroblast; 12 h, replicate number 2) | Growth Rate (Fibroblast; 18 h, replicate number 1) | Growth Rate (Fibroblast; 24 h, replicate number 1) | Growth Rate (U2OS; 12 h, replicate number 1) | Growth Rate (U2OS; 18 h, replicate number 1) | Growth Rate (U2OS; 18 h, replicate number 2) | Growth Rate (U2OS; 24 h, replicate number 1) | Growth Rate (U2OS; 24 h, replicate number 2) | Growth Rate (HEK-293T; 6 h, replicate number 1) | Growth Rate (HEK-293T; 6 h, replicate number 2) | Growth Rate (HEK-293T; 12 h, replicate number 1) | Growth Rate (HEK-293T; 12 h, replicate number 2) | Growth Rate (HEK-293T; 18 h, replicate number 1) | Growth Rate (HEK-293T; 18 h, replicate number 2) | Growth Rate (HEK-293T; 24 h, replicate number 1) | Growth Rate (HEK-293T; 24 h, replicate number 2) | Growth Rate (U2OS; 12 h, replicate number 2) | also measured |
| --- | --- | --- | --- | --- | --- | --- | --- | --- | --- | --- | --- | --- | --- | --- | --- | --- | --- | --- | --- | --- | --- |
| Cc1cccc(CC(=O)N2CCc3c2ccc(-c2cn(C)c4ncnc(N)c24)c3F)n1 | 0.64 | 0.98 | 0.46 | 0.94 | 0.46 | 0.52 | 0.43 | 0.31 | 0.97 | 0.59 | 0.71 | 0.02 | 0.26 | 0.24 | 0.53 | 0.4 | 0.55 | 0.46 | 0.57 | – | Growth Rate (Fibroblast; 18 h, replicate number 2): 0.69; Growth Rate (Fibroblast; 24 h, replicate number 2): 0.58; Growth Rate (U2OS; 6 h, replicate number 1): -0.61 |
| NCC1CCC(CNc2nc(NCc3ccccc3OC(F)(F)F)ncc2[N+](=O)[O-])CC1 (stereo not given) | 0.48 | 0.74 | 0.28 | 0.57 | -0.03 | 0.04 | 0.44 | 0.69 | 0.63 | 0.84 | 0.59 | -0.6 | -0.49 | -0.36 | -0.27 | -0.04 | -0.01 | 0.09 | 0.1 | 0.59 | Growth Rate (Fibroblast; 0 h, replicate number 1): -0.85; Growth Rate (Fibroblast; 18 h, replicate number 2): 0.35; Growth Rate (Fibroblast; 24 h, replicate number 2): 0.35; Growth Rate (U2OS; 6 h, replicate number 1): 0.45; Growth Rate (U2OS; 6 h, replicate number 2): 0.71 |
| CC(C)(C)S(=O)(=O)c1ccc2nccc(Nc3n[nH]c4ccc(F)cc34)c2c1 | – | 0.54 | 0.85 | 0.34 | 0.67 | 0.45 | 0.21 | 0.1 | -0.02 | 0.06 | -0.07 | -0.03 | -0.05 | -0.18 | -0.13 | -0.12 | -0.14 | -0.13 | -0.15 | 0.12 | Growth Rate (Fibroblast; 18 h, replicate number 2): 0.31; Growth Rate (Fibroblast; 24 h, replicate number 2): 0.22; Growth Rate (U2OS; 0 h, replicate number 1): -0.83; Growth Rate (U2OS; 6 h, replicate number 1): 0.95; Growth Rate (U2OS; 6 h, replicate number 2): 0.2 |
| Cc1nc(Nc2cnn(C3CCNCC3)c2)nc2c1N(C)C(=O)c1cc3ccccc3cc1N2C | -0.01 | 0.56 | -0.05 | 0.26 | -0.22 | -0.14 | -0.83 | 0.36 | 0.65 | 0.58 | 0.62 | 0.03 | 0.26 | 0.41 | 0.67 | 0.48 | 0.63 | 0.52 | 0.7 | 0.83 | Growth Rate (Fibroblast; 18 h, replicate number 2): 0.06; Growth Rate (Fibroblast; 24 h, replicate number 2): 0.17; Growth Rate (U2OS; 6 h, replicate number 1): 0.19; Growth Rate (U2OS; 6 h, replicate number 2): 0.81 |
| COc1ncc(-c2cc(-c3ncc(CN4C[C@@H](C)O[C@@H](C)C4)o3)c3cn[nH]c3c2)cc1NS(C)(=O)=O | -0.74 | -0.56 | -0.39 | -0.16 | -0.21 | -0.03 | 0.56 | 0.72 | 0.21 | 0.82 | 0.36 | -0.44 | -0.64 | -0.15 | -0.32 | -0.01 | -0.2 | 0.05 | -0.11 | 0.02 | Growth Rate (Fibroblast; 18 h, replicate number 2): 0.05; Growth Rate (Fibroblast; 24 h, replicate number 2): 0.3; Growth Rate (U2OS; 0 h, replicate number 2): -0.39; Growth Rate (U2OS; 6 h, replicate number 1): -0.31; Growth Rate (U2OS; 6 h, replicate number 2): -0.02 |
| CNc1nc(Nc2ccc(C(=O)N3CCOCC3)cc2OC)nc2[nH]cc(Cl)c12 | – | – | – | – | – | – | – | – | – | – | – | 0.03 | -0.31 | 0.06 | -0.05 | 0.26 | 0.08 | 0.27 | 0.24 | 0.5 | Growth Rate (Fibroblast; 0 h, replicate number 1): -0.95; Growth Rate (Fibroblast; 0 h, replicate number 2): -0.43; Growth Rate (U2OS; 0 h, replicate number 1): -0.99 |
| C=CC(=O)Nc1cc(-c2nn(C3CCC(N4CCN(C(C)=O)CC4)CC3)c3ncnc(N)c23)ccc1Oc1ccccc1 (stereo not given) | -0.52 | -0.24 | -0.15 | 0.07 | 0.03 | 0.21 | -0.62 | -0.59 | -0.48 | -0.59 | -0.41 | -0.71 | -0.92 | -0.48 | -0.56 | -0.4 | -0.22 | -0.31 | 0.09 | -0.57 | Growth Rate (Fibroblast; 18 h, replicate number 2): 0.33; Growth Rate (Fibroblast; 24 h, replicate number 2): 0.67; Growth Rate (U2OS; 0 h, replicate number 2): -0.83; Growth Rate (U2OS; 6 h, replicate number 1): -0.85; Growth Rate (U2OS; 6 h, replicate number 2): -0.6 |
| COc1cc2nc(-c3cc(F)ccc3O)nc(N[C@@H]3CNC[C@H]3C(C)(C)O)c2cc1OC.Cl.Cl | -0.98 | -1 | – | – | 0.18 | 0.06 | -0.39 and -0.54 | -0.4 and -0.47 | -0.37 and -0.32 | -0.35 and -0.37 | -0.34 and -0.27 | -0.41 and -0.9 | -0.53 | -0.39 and -0.88 | -0.5 and -0.73 | -0.28 and -0.69 | -0.42 and -0.53 | -0.23 and -0.61 | -0.33 and -0.39 | -0.46 and -0.33 | Growth Rate (Fibroblast; 0 h, replicate number 1): -1; Growth Rate (Fibroblast; 0 h, replicate number 2): 0.21; Growth Rate (U2OS; 0 h, replicate number 1): -0.66 |
| Nc1ncnc2[nH]c(-c3ccccc3)nc12 | – | 0.95 | 0.88 | 0.9 | – | – | – | – | 0.95 | – | – | 0.83 | 0.23 | 0.87 | 0.55 | 0.8 | 0.68 | 0.85 | 0.78 | 0.9 | Growth Rate (Fibroblast; 0 h, replicate number 2): 0.44; Growth Rate (U2OS; 0 h, replicate number 1): -1; Growth Rate (U2OS; 0 h, replicate number 2): 0.55; Growth Rate (U2OS; 6 h, replicate number 2): 0.92 |
